Experimental data reported in ChEMBL document CHEMBL1201862, “PubChem BioAssay data set” (2004).
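These data come from cells grown in 96-well plates and exposed to compound for 48 hours at five concentrations. Abbreviation: GI50, concentration required for 50% inhibition of growth.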 The source made the active and inactive calls. Cut-off read from the data, not from the text of the source: active = GI50 up to about 1.1 µM and inactive = higher.

What was measured:
Test in all cases: inhibition of tumour cell growth, NCI panel, 48 h
MDA-N = tested on: MDA-N
M14 = tested on: M14
CAKI-1 = tested on: CAKI-1
CCRF-CEM = tested on: CCRF-CEM
NCI-H23 = tested on: NCI-H23
MOLT-4 = tested on: MOLT-4
HT-29 = tested on: HT-29
SK-MEL-28 = tested on: SK-MEL-28
786-0 = tested on: 786-0
RXF 393 = tested on: RXF 393
SN12C = tested on: SN12C
T47D = tested on: T47D
A498 = tested on: A498
SR = tested on: SR
UACC-62 = tested on: UACC-62
SNB-19 = tested on: SNB-19
UO-31 = tested on: UO-31
DU-145 = tested on: DU-145
HCC 2998 = tested on: HCC 2998
K562 = tested on: K562
PC-3 = tested on: PC-3
NCI-H226 = tested on: NCI-H226
MCF7 = tested on: MCF7
BT-549 = tested on: BT-549
SK-MEL-2 = tested on: SK-MEL-2
A549 = tested on: A549
MDA-MB-435 = tested on: MDA-MB-435
HOP-92 = tested on: HOP-92
LOX IMVI = tested on: LOX IMVI
IGROV-1 = tested on: IGROV-1
OVCAR-5 = tested on: OVCAR-5
SF-268 = tested on: SF-268
NCI/ADR-RES = tested on: NCI/ADR-RES
MDA-MB-231 = tested on: MDA-MB-231
U-251 = tested on: U-251
COLO 205 = tested on: COLO 205
HCT-15 = tested on: HCT-15
NCI-H522 = tested on: NCI-H522
SK-OV-3 = tested on: SK-OV-3
SK-MEL-5 = tested on: SK-MEL-5
SNB-75 = tested on: SNB-75
SF-295 = tested on: SF-295
UACC-257 = tested on: UACC-257
SF-539 = tested on: SF-539
RPMI-8226 = tested on: RPMI-8226
EKVX = tested on: EKVX
HCT-116 = tested on: HCT-116
NCI-H460 = tested on: NCI-H460
SW-620 = tested on: SW-620
HL-60 = tested on: HL-60
TK-10 = tested on: TK-10
KM12 = tested on: KM12
OVCAR-3 = tested on: OVCAR-3
Malme-3M = tested on: Malme-3M
OVCAR-4 = tested on: OVCAR-4
HOP-62 = tested on: HOP-62
Hs-578T = tested on: Hs-578T
OVCAR-8 = tested on: OVCAR-8
ACHN = tested on: ACHN

COC(=O)CN1c2nc(C#N)c(C#N)nc2N(CC(=O)OC)c2nc(C#N)c(C#N)nc21
GI50 (MDA-N): 3.53 µM (inactive)
GI50 (M14): 1.84 µM (inactive)
GI50 (CAKI-1): 540 nM (active)
GI50 (CCRF-CEM): 1.01 µM (active)
GI50 (NCI-H23): 2.99 µM (inactive)
GI50 (MOLT-4): 479 nM (active)
GI50 (HT-29): 3.02 µM (inactive)
GI50 (SK-MEL-28): 3.74 µM (inactive)
GI50 (786-0): 2.09 µM (inactive)
GI50 (RXF 393): 2.91 µM (inactive)
GI50 (SN12C): 3.34 µM (inactive)
GI50 (T47D): 2.35 µM (inactive)
GI50 (A498): 15.3 µM (inactive)
GI50 (SR): 2 µM (inactive)
GI50 (UACC-62): 5.45 µM (inactive)
GI50 (SNB-19): 12 µM (inactive)
GI50 (UO-31): 1.69 µM (inactive)
GI50 (DU-145): 1.43 µM (inactive)
GI50 (HCC 2998): 16.7 µM (inactive)
GI50 (K562): 1.51 µM (inactive)
GI50 (PC-3): 4.15 µM (inactive)
GI50 (NCI-H226): 38.8 µM (inactive)
GI50 (MCF7): 3.13 µM (inactive)
GI50 (BT-549): 4.78 µM (inactive)
GI50 (SK-MEL-2): 8.81 µM (inactive)
GI50 (A549): 12 µM (inactive)
GI50 (MDA-MB-435): 2.64 µM (inactive)
GI50 (HOP-92): 1.87 µM (inactive)
GI50 (LOX IMVI): 2.2 µM (inactive)
GI50 (IGROV-1): 3.46 µM (inactive)
GI50 (OVCAR-5): 8 µM (inactive)
GI50 (SF-268): 4.05 µM (inactive)
GI50 (NCI/ADR-RES): 18.7 µM (inactive)
GI50 (MDA-MB-231): 6.73 µM (inactive)
GI50 (U-251): 6.81 µM (inactive)
GI50 (COLO 205): 1.26 µM (inactive)
GI50 (HCT-15): 3050 nM
GI50 (NCI-H522): 863 nM (active)
GI50 (SK-OV-3): 15.3 µM (inactive)
GI50 (SK-MEL-5): 5.4 µM (inactive)
GI50 (SNB-75): 14 µM (inactive)
GI50 (SF-295): 19.5 µM (inactive)
GI50 (UACC-257): 2.72 µM (inactive)
GI50 (SF-539): 7.11 µM (inactive)
GI50 (RPMI-8226): 1.87 µM (inactive)
GI50 (EKVX): 4.47 µM (inactive)
GI50 (HCT-116): 1.58 µM (inactive)
GI50 (NCI-H460): 22 µM (inactive)
GI50 (SW-620): 1.76 µM (inactive)
GI50 (HL-60): 2.26 µM (inactive)
GI50 (TK-10): 2.5 µM (inactive)
GI50 (KM12): 8.22 µM (inactive)
GI50 (OVCAR-3): 2.92 µM (inactive)
GI50 (Malme-3M): 301 nM (active)
GI50 (OVCAR-4): 3.1 µM (inactive)
GI50 (HOP-62): 16.5 µM (inactive)
GI50 (Hs-578T): 19.6 µM (inactive)
GI50 (OVCAR-8): 2.37 µM (inactive)
GI50 (ACHN): 1.59 µM (inactive)

C[Si](C)(C)C1=C([Si](C)(C)C)C(Cl)(Cl)C1=O
GI50 (MDA-N): 1.99 µM (inactive)
GI50 (M14): 2.65 µM (inactive)
GI50 (CAKI-1): 2360 nM (inactive)
GI50 (CCRF-CEM): 0.232 µM (active)
GI50 (NCI-H23): 4.26 µM (inactive)
GI50 (MOLT-4): 671 nM (active)
GI50 (HT-29): 3.11 µM (inactive)
GI50 (SK-MEL-28): 2.79 µM (inactive)
GI50 (786-0): 2.58 µM (inactive)
GI50 (RXF 393): 1.9 µM (inactive)
GI50 (SN12C): 3.31 µM (inactive)
GI50 (T47D): 1.74 µM (inactive)
GI50 (A498): 15.5 µM (inactive)
GI50 (SR): 1.93 µM (inactive)
GI50 (UACC-62): 2.38 µM (inactive)
GI50 (SNB-19): 16 µM (inactive)
GI50 (UO-31): 2.34 µM (inactive)
GI50 (DU-145): 10.4 µM (inactive)
GI50 (HCC 2998): 8.36 µM (inactive)
GI50 (K562): 0.879 µM (active)
GI50 (PC-3): 3.76 µM (inactive)
GI50 (NCI-H226): 3.13 µM (inactive)
GI50 (MCF7): 6.15 µM (inactive)
GI50 (BT-549): 3.63 µM (inactive)
GI50 (SK-MEL-2): 9.12 µM (inactive)
GI50 (A549): 19.8 µM (inactive)
GI50 (MDA-MB-435): 2 µM (inactive)
GI50 (HOP-92): 2.04 µM (inactive)
GI50 (LOX IMVI): 1.58 µM (inactive)
GI50 (IGROV-1): 3.73 µM (inactive)
GI50 (OVCAR-5): 7.28 µM (inactive)
GI50 (SF-268): 5.94 µM (inactive)
GI50 (NCI/ADR-RES): 3.42 µM (inactive)
GI50 (MDA-MB-231): 2.8 µM (inactive)
GI50 (U-251): 4.08 µM (inactive)
GI50 (COLO 205): 2.04 µM (inactive)
GI50 (HCT-15): 1920 nM
GI50 (NCI-H522): 1270 nM (inactive)
GI50 (SK-OV-3): 22.6 µM (inactive)
GI50 (SK-MEL-5): 1.98 µM (inactive)
GI50 (SNB-75): 8.77 µM (inactive)
GI50 (SF-295): 9.1 µM (inactive)
GI50 (UACC-257): 2.05 µM (inactive)
GI50 (SF-539): 5.22 µM (inactive)
GI50 (RPMI-8226): 0.8 µM (active)
GI50 (EKVX): 4.72 µM (inactive)
GI50 (HCT-116): 3.39 µM (inactive)
GI50 (NCI-H460): 12.4 µM (inactive)
GI50 (SW-620): 2.27 µM (inactive)
GI50 (HL-60): 0.217 µM (active)
GI50 (TK-10): 1.68 µM (inactive)
GI50 (KM12): 6.17 µM (inactive)
GI50 (OVCAR-3): 2.18 µM (inactive)
GI50 (Malme-3M): 1750 nM (inactive)
GI50 (OVCAR-4): 3.28 µM (inactive)
GI50 (HOP-62): 18.7 µM (inactive)
GI50 (Hs-578T): 10.4 µM (inactive)
GI50 (OVCAR-8): 2.23 µM (inactive)
GI50 (ACHN): 1.74 µM (inactive)
